Here are results for four molecules from EP3928775A1, “USE OF ANTI[…] FOR TREATING THE COVID-19 DISEASE” (priority 2020, dated 2021).

Like-named read-outs stand apart in the source and are kept apart here.

One test has as its system Covid-19. The format is in vivo, human.
A further test concerns SARS-CoV-2. Particulars: in-vitro study, reference 11; cited from earlier work.
Setting [1] is: Patients admitted to the hospital with Covid-19, exposed vs not exposed.

Regarding `CN(C)CCC[C@@]1(c2ccc(F)cc2)OCc2cc(C#N)ccc21` [Escitalopram], the “risk of intubation or death (in words)” value in the test with Covid-19 (setting [1]) is “significantly and substantially reduced”. The “antiviral effects on SARS-CoV-2” value in the test with SARS-CoV-2 is given as “has not be observed”.
Take `CNCCC(Oc1ccc(C(F)(F)F)cc1)c1ccccc1` (stereo not drawn) [Fluoxetine]: the “risk of intubation or death (in words)” value in the test with Covid-19 (in vivo) is “significantly and substantially reduced”. Moreover, the “antiviral effects on SARS-CoV-2” value in the test with SARS-CoV-2 was “antiviral effects”.
For the molecule `Fc1ccc([C@@H]2CCNC[C@H]2COc2ccc3c(c2)OCO3)cc1` [Paroxetine], the “antiviral effects on SARS-CoV-2” value in the test on SARS-CoV-2 is reported as “has not be observed”.
Take `COc1ccc(C(CN(C)C)C2(O)CCCCC2)cc1` (stereo not drawn) [Venlafaxine]: in the test with Covid-19 (setting [1]), the “risk of intubation or death (in words)” value is “significantly and substantially reduced”.
